Laboratory results from patent US20240350402A1, “TOPICAL DRUG TREATMENT TO PREVENT OR REDUCE CORNEAL SCARRING” (The Cleveland Clinic Foundation, priority 2021, published 2024).

Tests used:
[1] = test system: rabbit corneas after alkali burn injury; experiment: Alkali burn model: slit lamp opacity area and intensity (ImageJ); format: in vivo; conditions: alkali burn 1N NaOH; topical six times per day, one month; 0.8 mg/ml losartan, 1% prednisolone acetate
Protocol: All animal treatments and care were approved by the Institutional Animal Care and Use Committee (IACUC) at the Cleveland Clinic Foundation (Cleveland, OH, USA) and the Animal Care and Use Review Office of the Department of the Army (Fort Detrick, MD). All rabbits were treated in accordance with the tenets of the ARVO Statement for the Use of Animals in Ophthalmic and Vision Research. Sixteen 10- to 15-week-old female New Zealand White rabbits weighing 2.5 to 3.0 kg each were included in this example. […]
At one month after sodium hydroxide exposure and treatments, with the rabbits under ketamine-xylazine general anesthesia, the eyes were dilated with two drops of 1% tropicamide (Akom Co., Lake Forest, IL) for thirty minutes. […] For each study eye, the total area of opacity was determined by outlining the opacity with the freehand selection tool using ImageJ 1.53a analysis software calibrated to mm^2. The “raw internal density” in pixels for the opacified area in each cornea was also determined using ImageJ. […]

[2] = test system: α-SMA-positive myofibroblasts; experiment: Alkali burn model: IHC α-SMA-positive stromal area and intensity (ImageJ); format: in vivo, rabbit; conditions: one month
Protocol: Alkali injuries were produced in one eye of rabbits with previously published methods^10 using 1N sodium hydroxide (Sigma, St. Louis, MO) in balanced salt solution (BSS, 0.64% sodium chloride, 0.075% potassium chloride, 0.048% calcium chloride dihydrate, […] magnesium chloride hexahydrate, 0.39% sodium acetate trihydrate, 0.17% sodium citrate dihydrate, pH 7.5, Alcon, H. Worth, TX) and a 5 mm diameter circular Whatman No. 1 filter paper (Cat #1001-6508, Fisher Scientific) wetted with 100 μl of 1N NaOH solution. Following the alkali burn injury, the cornea was irrigated profusely with BSS. Each injured cornea also received one drop of ciprofloxacin (Alcon, Ft. Worth, TX, USA) ten minutes after surgery and four times a day for one week and at least 15 minutes apart from the study medications.
Worth TX), at least 5 minutes apart, or 4) 50 μl of BSS. […]
The area of the α-SMA-positive stroma in mm^2 and the total α-SMA opacity in pixels were quantitated using standardized images obtained with a 10× objective on a Leica DM6B upright microscope equipped with an automated stage and Leica 7000 T camera using the LAS X software (Leica Microsystems, GmbH, Wetzlar, Germany). The means of three central corneal sections were analyzed from each cornea to provide the area of α-SMA-positive stroma and the total α-SMA opacity. The area of α-SMA-positive stroma in mm^2 for each cornea was determined from full diameter and thickness central corneal section images (all converted to 300 DPI, 885 width×500 height, files with identical +50% brightness increase in Photoshop for all images) with the ImageJ 1.53a analysis software using the freehand selection tool to delineate the area(s) of α-SMA-positive staining. […] In these same sections for each cornea, the total α-SMA-positive intensity in pixels was also determined with ImageJ, similarly by using the summation if separate α-SMA-positive areas were present. […]

SMILES: CCCCc1nc(Cl)c(CO)n1Cc1ccc(-c2ccccc2-c2nn[nH]n2)cc1 [losartan]
- total opacity intensity in pixels (ImageJ) vs BSS vehicle group [1]: significantly different
- total α-SMA area vs vehicle control group [2]: trend
- localization of α-SMA-positive myofibroblasts in the stroma ([2]; topical six times per day): confined mostly to the posterior half of the stroma
